Assay results published in patent US8298781B2, “Compositions and methods for characterizing and regulating olfactory sensation” (Duke University, priority 2007, dated 2012).

Tests used:
Format in all cases: in vivo
human subjects [1] = assay: Human olfactory psychophysics: valence rating by OR7D4 genotype; settings: 7-point scale, two concentrations pooled
Protocol: (§1) Human olfactory psychophysics. All human subjects gave informed consent to participate in this study and were tested in a well-ventilated room. Normal human subjects (n=412; 218 female, 194 male; median age 34, age range 19-75) were pre-screened to exclude pregnant women and those with medical conditions causing general impairment of the sense of smell. All subjects completed two replicates of the test separated by at least 4 days. Odors were presented in amber vials as previously described (see, e.g., Keller, A., et al., Nat Neurosci 7, 337-338 (2004); herein incorporated by reference in its entirety) using bar-coded symbols to ensure that subjects were blind to the identity of all odors. The intensity and valence of 66 odors at two concentrations (“high” and “low”) and two solvents was rated using a 7-point scale. Thresholds were calculated using the single staircase method with seven reversals (see, e.g., Doty, R. L., et al., Chem Senses 20, 645-656 (1995); Doty, R. L. & Laing, D. G. in Handbook of Olfaction and Gustation (ed. Doty, R. L.) pp. 203-228 (Marcel Dekker, Inc., New York, 2003); each of which are herein incorporated by reference in their entireties). Threshold tests included both steroids as binary dilutions from […] (binary dilution 6) to 1: 134,217,728 (binary dilution 27). Subjects who could not reliably distinguish a 1:64 dilution of androstenone and androstadienone from solvent were operationally defined as anosmic to these odorous steroids, although it could not be excluded that these subjects could detect higher concentrations of these steroids (see, e.g., Bremner, E. A., et al., Chem Senses 28, 423-432 (2003); herein incorporated by reference in its entirety). Odor profiling used the method established by Dravnieks, et al. (see, e.g., Dravnieks, A., et al., Science 218, 799-801 (1982); herein incorporated by reference in its entirety).
(§2) Stimuli for olfactory psychophysics. All odors were presented as one ml of an odor dilution in either propylene glycol or paraffin oil in 20 ml amber glass vials. All of these compounds were used in the intensity and valence rating portion of the smell test.
(§3) Olfactory ratings. The intensity and valence of 66 odors were rated at two different concentrations (high and low) and the intensity and valence of the two solvents (paraffin oil and propylene glycol) was rated three times. Prior to these ratings, six stimuli that represented the spectrum of intensity and valence of the stimuli used in the study were presented to allow the subjects to calibrate the usage of the scale. The subjects were unaware that the six first stimuli served that purpose. After the rating of the 66 odors at two concentrations and the rating of the solvents, 15 stimuli that were presented earlier in the experiment were repeated to test for the effect of adaptation and olfactory fatigue on the ratings. The subjects were not aware that the last 15 stimuli served this purpose. These 15 stimuli and the six first stimuli were not included in the analysis presented here. […] The 15 control stimuli and their concentrations were as follows:
(§4) In addition there was a button on the screen labeled “I can't smell anything” and a button labeled “Don't Know”. If the “Don't Know” button was pressed, no rating was recorded. If the “I can't smell anything” button was pressed, a 0 was recorded for the intensity rating and no rating was recorded for the valence rating. The other ratings were transformed according to the following scheme:
(§5) • Extremely Weak=1 • Very Weak=2 • Slightly Weak=3 • Neither Weak nor Strong=4 • Slightly Strong=5 • Very Strong=6 • Extremely Strong=7 Valence Rating • Extremely Unpleasant=1 • Very Unpleasant=2 • Slightly Unpleasant=3 • Neither Unpleasant nor Pleasant=4 • Slightly Pleasant=5 • Very Pleasant=6 • Extremely Pleasant=7
(§6) Averages for the ratings of the different genotypes were calculated. […]

human subjects [2] = assay: Human olfactory psychophysics: intensity rating by OR7D4 genotype; settings: 7-point scale, two concentrations pooled; N=100 RT/WM, N=255 RT/RT
Protocol: as §1, §2, §3, §4, §5, §6

human subjects [3] = assay: Human olfactory psychophysics: odor profiling with 146 descriptors; settings: vanillin 1/200
Protocol: Human olfactory psychophysics. All human subjects gave informed consent to participate in this study and were tested in a well-ventilated room. Normal human subjects (n=412; 218 female, 194 male; median age 34, age range 19-75) were pre-screened to exclude pregnant women and those with medical conditions causing general impairment of the sense of smell. All subjects completed two replicates of the test separated by at least 4 days. Odors were presented in amber vials as previously described (see, e.g., Keller, A., et al., Nat Neurosci 7, 337-338 (2004); herein incorporated by reference in its entirety) using bar-coded symbols to ensure that subjects were blind to the identity of all odors. The intensity and valence of 66 odors at two concentrations (“high” and “low”) and two solvents was rated using a 7-point scale. Thresholds were calculated using the single staircase method with seven reversals (see, e.g., Doty, R. L., et al., Chem Senses 20, 645-656 (1995); Doty, R. L. & Laing, D. G. in Handbook of Olfaction and Gustation (ed. Doty, R. L.) pp. 203-228 (Marcel Dekker, Inc., New York, 2003); each of which are herein incorporated by reference in their entireties). Threshold tests included both steroids as binary dilutions from […] (binary dilution 6) to 1: 134,217,728 (binary dilution 27). […]
Assigning descriptors to odors. Subjects assessed the quality of six odors using an odor profiling method that has shown to produce stable profiles of odorants. […] Odor profiling typically took five minutes per odorant and was performed as a computer-controlled selftest in which the subject's responses were directly recorded. […] The descriptors used to describe the other four odors (vanillin, pentadecalactone, androstenone, and propylene glycol) were evaluated. […]

| SMILES | valence rating, OR7D4 RT/WM vs RT/RT subjects (human subjects [1]) | intensity rating, OR7D4 RT/WM vs RT/RT subjects (human subjects [2]) | use of two descriptors, OR7D4 RT/WM vs RT/RT subjects (human subjects [3]) |
| --- | --- | --- | --- |
| CCCCCCCCOC(C)=O [octyl acetate] | less pronounced—but statistically significant—difference |  |  |
| CC1COCc2cc3c(cc21)C(C)(C)C(C)C3(C)C (centres unmarked) [galaxolide] |  | not affected |  |
| O=C1CCCCCCCCCCCCCCO1 [pentadecalactone] |  | not affected |  |
| COc1cc(C=O)ccc1O [vanillin] | less pronounced—but statistically significant—difference |  | comparable increase |
